System: human adult primary fibroblast cells
Assay: Proliferative analysis (population doubling, cell counts per passage) under standard and oxidative stress conditions
Assay type: cell-based
Procedure: Analysis of cellular proliferation rate and telomere length in cultures of human adult primary fibroblast cells treated with lutein under standard and oxidative stress conditions. Primary cultures of adult human fibroblast were established. Cells are seeded at 2×10^3 cells/cm2 in GlutaMax™ high glucose Dulbecco's modified Eagle's medium (DMEM, Gibco®), and supplemented with 10% fetal bovine serum (FBS, HyClone, Thermo Scientific), penicillin (100 U/ml) and reptomycin (1000 U/ml). Media is renewed every 2-3 days and cells passaged at sub-confluence (70-80%) every 4-5 days. Compounds or vehicle control are added to the cells in culture. Cell growth is monitored for each condition by counting cell numbers at each passage using a Countess™ cell counter (Invitrogen). Population doubling (PD) was calculated with the formula PD=(log (Nn/Nn-1))/log 2 where n is the passage; and N the number of cells. One PD is equivalent to one round of cell replication. Eight independent condition were evaluated by proliferative Analysis: Standard cell culture condition+Lutein−10 μg/ml (LUT10) Standard cell culture condition+Lutein−5 μg/ml (LUT5) Standard cell culture condition+Lutein−1 μg/ml (LUT1) Standard cell culture condition+Lutein−10 μg/ml+10 μM H2O2 (LUT10+H2O2) Standard cell culture condition+Lutein−5 μg/ml+10 μM H2O2(LUT5+H2O2) Standard cell culture condition+Lutein−1 μg/ml+10 μM H2O2 (LUT1+H2O2) Cells were expanded during eight weeks under standard and oxidative (10 μM H2O2) cell culture condition as described previously. Fresh treatments were prepared and added to the cells at every passage and also when media was renewed. Stock solution of 10 mg/ml of the compound was prepared in DMSO and the different treatments were prepared from that stock.

[1] = Lutein 1 μg/ml + 10 μM H2O2, week 1 (P1)
[2] = Lutein 1 μg/ml + 10 μM H2O2, week 2 (P2)
[3] = Lutein 1 μg/ml + 10 μM H2O2, week 3 (P3)
[4] = Lutein 1 μg/ml + 10 μM H2O2, week 4 (P4)
[5] = Lutein 1 μg/ml + 10 μM H2O2, week 5 (P5)
[6] = Lutein 1 μg/ml + 10 μM H2O2, week 6 (P6)
[7] = Lutein 1 μg/ml + 10 μM H2O2, week 7 (P7)
[8] = Lutein 1 μg/ml + 10 μM H2O2, week 8 (P8)
[9] = Lutein 1 μg/ml, standard culture, week 1 (P1)
[10] = Lutein 1 μg/ml, standard culture, week 2 (P2)
[11] = Lutein 1 μg/ml, standard culture, week 3 (P3)
[12] = Lutein 1 μg/ml, standard culture, week 4 (P4)
[13] = Lutein 1 μg/ml, standard culture, week 5 (P5)
[14] = Lutein 1 μg/ml, standard culture, week 6 (P6)
[15] = Lutein 1 μg/ml, standard culture, week 7 (P7)
[16] = Lutein 1 μg/ml, standard culture, week 8 (P8)
[17] = Lutein 5 μg/ml + 10 μM H2O2, week 1 (P1)
[18] = Lutein 5 μg/ml + 10 μM H2O2, week 2 (P2)
[19] = Lutein 5 μg/ml + 10 μM H2O2, week 3 (P3)
[20] = Lutein 5 μg/ml + 10 μM H2O2, week 4 (P4)
[21] = Lutein 5 μg/ml + 10 μM H2O2, week 5 (P5)
[22] = Lutein 5 μg/ml + 10 μM H2O2, week 6 (P6)
[23] = Lutein 5 μg/ml + 10 μM H2O2, week 7 (P7)
[24] = Lutein 5 μg/ml + 10 μM H2O2, week 8 (P8)
[25] = Lutein 5 μg/ml, standard culture, week 1 (P1)
[26] = Lutein 5 μg/ml, standard culture, week 2 (P2)
[27] = Lutein 5 μg/ml, standard culture, week 3 (P3)
[28] = Lutein 5 μg/ml, standard culture, week 4 (P4)
[29] = Lutein 5 μg/ml, standard culture, week 5 (P5)
[30] = Lutein 5 μg/ml, standard culture, week 6 (P6)
[31] = Lutein 5 μg/ml, standard culture, week 7 (P7)
[32] = Lutein 5 μg/ml, standard culture, week 8 (P8)
[33] = Lutein 10 μg/ml + 10 μM H2O2, week 1 (P1)
[34] = Lutein 10 μg/ml + 10 μM H2O2, week 2 (P2)
[35] = Lutein 10 μg/ml + 10 μM H2O2, week 3 (P3)
[36] = Lutein 10 μg/ml + 10 μM H2O2, week 4 (P4)
[37] = Lutein 10 μg/ml + 10 μM H2O2, week 5 (P5)
[38] = Lutein 10 μg/ml + 10 μM H2O2, week 6 (P6)
[39] = Lutein 10 μg/ml + 10 μM H2O2, week 7 (P7)
[40] = Lutein 10 μg/ml + 10 μM H2O2, week 8 (P8)
[41] = Lutein 10 μg/ml, standard culture, week 1 (P1)
[42] = Lutein 10 μg/ml, standard culture, week 2 (P2)
[43] = Lutein 10 μg/ml, standard culture, week 3 (P3)
[44] = Lutein 10 μg/ml, standard culture, week 4 (P4)
[45] = Lutein 10 μg/ml, standard culture, week 5 (P5)
[46] = Lutein 10 μg/ml, standard culture, week 6 (P6)
[47] = Lutein 10 μg/ml, standard culture, week 7 (P7)
[48] = Lutein 10 μg/ml, standard culture, week 8 (P8)

SMILES: CC1=C[C@H](O)CC(C)(C)[C@H]1/C=C/C(C)=C/C=C/C(C)=C/C=C/C=C(C)/C=C/C=C(C)/C=C/C1=C(C)C[C@@H](O)CC1(C)C [Lutein]
- Cumulative Population Doubling per passage [1]: 3.42
- Population Doubling per passage [1]: 3.42
- Total number of cells per passage [1]: 1.60E+06
- Cumulative Population Doubling per passage [2]: 6.29
- Population Doubling per passage [2]: 2.87
- Total number of cells per passage [2]: 1.17E+07
- Cumulative Population Doubling per passage [3]: 9.16
- Population Doubling per passage [3]: 2.37
- Total number of cells per passage [3]: 8.60E+07
- Cumulative Population Doubling (Table 7A) (Lutein 1 μg/ml + 10 μM H2O2, week 4): 12.3
- Cumulative Population Doubling per passage [4]: 12.28
- Population Doubling per passage [4]: 3.12
- Total number of cells per passage [4]: 7.46E+08
- Cumulative Population Doubling per passage [5]: 14.76
- Population Doubling per passage [5]: 2.49
- Total number of cells per passage [5]: 4.18E+09
- Cumulative Population Doubling per passage [6]: 17.41
- Population Doubling per passage [6]: 2.65
- Total number of cells per passage [6]: 2.62E+10
- Cumulative Population Doubling per passage [7]: 18.41
- Population Doubling per passage [7]: 1.00
- Total number of cells per passage [7]: 5.23E+10
- Cumulative Population Doubling (Table 7A) (Lutein 1 μg/ml + 10 μM H2O2, week 8): 20.7
- Cumulative Population Doubling per passage [8]: 20.72
- Population Doubling per passage [8]: 2.30
- Total number of cells per passage [8]: 2.58E+11
- Cumulative Population Doubling per passage [9]: 3.81
- Population Doubling per passage [9]: 3.81
- Total number of cells per passage [9]: 2.10E+06
- Cumulative Population Doubling per passage [10]: 7.31
- Population Doubling per passage [10]: 3.50
- Total number of cells per passage [10]: 2.38E+07
- Cumulative Population Doubling per passage [11]: 10.18
- Population Doubling per passage [11]: 3.57
- Total number of cells per passage [11]: 1.75E+08
- Cumulative Population Doubling (Table 7A) (Lutein 1 μg/ml, standard culture, week 4): 13.7
- Cumulative Population Doubling per passage [12]: 13.69
- Population Doubling per passage [12]: 3.50
- Total number of cells per passage [12]: 1.98E+09
- Cumulative Population Doubling per passage [13]: 15.71
- Population Doubling per passage [13]: 2.02
- Total number of cells per passage [13]: 8.04E+09
- Cumulative Population Doubling per passage [14]: 18.71
- Population Doubling per passage [14]: 3.00
- Total number of cells per passage [14]: 6.44E+10
- Cumulative Population Doubling per passage [15]: 21.39
- Population Doubling per passage [15]: 2.68
- Total number of cells per passage [15]: 4.12E+11
- Cumulative Population Doubling (Table 7A) (Lutein 1 μg/ml, standard culture, week 8): 24.1
- Cumulative Population Doubling per passage [16]: 24.13
- Population Doubling per passage [16]: 2.74
- Total number of cells per passage [16]: 2.75E+12
- Cumulative Population Doubling per passage [17]: 3.58
- Population Doubling per passage [17]: 3.58
- Total number of cells per passage [17]: 1.80E+06
- Cumulative Population Doubling per passage [18]: 6.91
- Population Doubling per passage [18]: 3.32
- Total number of cells per passage [18]: 1.80E+07
- Cumulative Population Doubling per passage [19]: 10.13
- Population Doubling per passage [19]: 3.22
- Total number of cells per passage [19]: 1.68E+08
- Cumulative Population Doubling (Table 7A) (Lutein 5 μg/ml + 10 μM H2O2, week 4): 13.5
- Cumulative Population Doubling per passage [20]: 13.54
- Population Doubling per passage [20]: 3.42
- Total number of cells per passage [20]: 1.79E+09
- Cumulative Population Doubling per passage [21]: 15.70
- Population Doubling per passage [21]: 2.16
- Total number of cells per passage [21]: 8.00E+09
- Cumulative Population Doubling per passage [22]: 17.84
- Population Doubling per passage [22]: 2.14
- Total number of cells per passage [22]: 3.52E+10
- Cumulative Population Doubling per passage [23]: 20.71
- Population Doubling per passage [23]: 2.87
- Total number of cells per passage [23]: 2.58E+11
- Cumulative Population Doubling (Table 7A) (Lutein 5 μg/ml + 10 μM H2O2, week 8): 23.1
- Cumulative Population Doubling per passage [24]: 23.06
- Population Doubling per passage [24]: 2.34
- Total number of cells per passage [24]: 1.31E+12
- Cumulative Population Doubling per passage [25]: 3.81
- Population Doubling per passage [25]: 3.81
- Total number of cells per passage [25]: 2.10E+06
- Cumulative Population Doubling per passage [26]: 6.47
- Population Doubling per passage [26]: 2.65
- Total number of cells per passage [26]: 1.33E+07
- Cumulative Population Doubling per passage [27]: 9.12
- Population Doubling per passage [27]: 2.65
- Total number of cells per passage [27]: 8.33E+07
- Cumulative Population Doubling (Table 7A) (Lutein 5 μg/ml, standard culture, week 4): 12.5
- Cumulative Population Doubling per passage [28]: 12.53
- Population Doubling per passage [28]: 3.42
- Total number of cells per passage [28]: 8.89E+09
- Cumulative Population Doubling per passage [29]: 15.02
- Population Doubling per passage [29]: 2.49
- Total number of cells per passage [29]: 4.98E+09
- Cumulative Population Doubling per passage [30]: 16.47
- Population Doubling per passage [30]: 1.45
- Total number of cells per passage [30]: 1.36E+10
- Cumulative Population Doubling per passage [31]: 18.15
- Population Doubling per passage [31]: 1.68
- Total number of cells per passage [31]: 4.35E+10
- Cumulative Population Doubling (Table 7A) (Lutein 5 μg/ml, standard culture, week 8): 21.3
- Cumulative Population Doubling per passage [32]: 21.26
- Population Doubling per passage [32]: 3.12
- Total number of cells per passage [32]: 3.77E+11
- Cumulative Population Doubling per passage [33]: 3.50
- Population Doubling per passage [33]: 3.50
- Total number of cells per passage [33]: 1.70E+06
- Cumulative Population Doubling per passage [34]: 6.92
- Population Doubling per passage [34]: 3.42
- Total number of cells per passage [34]: 1.81E+07
- Cumulative Population Doubling per passage [35]: 9.65
- Population Doubling per passage [35]: 2.74
- Total number of cells per passage [35]: 1.21E+08
- Cumulative Population Doubling (Table 7A) (Lutein 10 μg/ml + 10 μM H2O2, week 4): 13.1
- Cumulative Population Doubling per passage [36]: 13.07
- Population Doubling per passage [36]: 3.42
- Total number of cells per passage [36]: 1.29E+09
- Cumulative Population Doubling per passage [37]: 14.97
- Population Doubling per passage [37]: 1.90
- Total number of cells per passage [37]: 4.81E+09
- Cumulative Population Doubling per passage [38]: 16.97
- Population Doubling per passage [38]: 2.00
- Total number of cells per passage [38]: 1.93E+09
- Cumulative Population Doubling per passage [39]: 18.52
- Population Doubling per passage [39]: 1.55
- Total number of cells per passage [39]: 5.65E+10
- Cumulative Population Doubling (Table 7A) (Lutein 10 μg/ml + 10 μM H2O2, week 8): 20.8
- Cumulative Population Doubling per passage [40]: 20.83
- Population Doubling per passage [40]: 2.30
- Total number of cells per passage [40]: 2.79E+11
- Cumulative Population Doubling per passage [41]: 3.58
- Population Doubling per passage [41]: 3.58
- Total number of cells per passage [41]: 1.80E+06
- Cumulative Population Doubling per passage [42]: 6.70
- Population Doubling per passage [42]: 3.12
- Total number of cells per passage [42]: 1.56E+07
- Cumulative Population Doubling per passage [43]: 9.82
- Population Doubling per passage [43]: 3.12
- Total number of cells per passage [43]: 1.35E+08
- Cumulative Population Doubling (Table 7A) (Lutein 10 μg/ml, standard culture, week 4): 13.3
- Cumulative Population Doubling per passage [44]: 13.32
- Population Doubling per passage [44]: 3.50
- Total number of cells per passage [44]: 1.53E+09
- Cumulative Population Doubling per passage [45]: 15.75
- Population Doubling per passage [45]: 2.43
- Total number of cells per passage [45]: 8.27E+09
- Cumulative Population Doubling per passage [46]: 18.49
- Population Doubling per passage [46]: 2.74
- Total number of cells per passage [46]: 5.52E+10
- Cumulative Population Doubling per passage [47]: 21.18
- Population Doubling per passage [47]: 2.69
- Total number of cells per passage [47]: 3.57E+11
- Cumulative Population Doubling (Table 7A) (Lutein 10 μg/ml, standard culture, week 8): 23.9
- Cumulative Population Doubling per passage [48]: 23.92
- Population Doubling per passage [48]: 2.74
- Total number of cells per passage [48]: 2.38E+12
- Proliferation rate compared to control group (H2O2) (Lutein 10, 5 and 1 μg/ml + 10 μM H2O2 (oxidative culture conditions), after eight weeks): increase in proliferation rate
- Proliferation rate compared to control (Ctrl) (Lutein 10, 5 and 1 μg/ml, standard culture conditions, after eight weeks): no difference

Reference: patent publication US20220175693A1, “DIETARY SUPPLEMENT COMPRISING LUTEIN FOR TELOMERE PROTECTION, AND METHOD FOR PRODUCTION THEREOF” (BIOGEN EXTRACTS PRIVATE LIMITED, priority 2019, published 2022)
